Reference: patent US10413532B2, “Pharmaceutical compositions containing a PDE4 inhibitor and a PI3 delta or dual PI3 delta-gamma kinase inhibitor” (Rhizen Pharmaceuticals SA, priority 2012, dated 2019)
Like-named read-outs stand apart in the source and are kept apart here.

Legend:
MMP-9 = MMP-9 release from PMA-induced THP-1 cells (gelatin zymography); type: cell-based, human; conditions: compound alone at 300 nM
Procedure: Gelatinase activity of MMP-9 was determined by zymography. Proteins in supernatant (after incubation of THP-1 cells with 50 ng PMA for 24 h) were separated on gels containing 0.1% gelatin (Sigma, USA). Gels were re-natured by incubation in 2.5% Triton X-100 for 30 min, incubated overnight in substrate buffer (50 mMTris-HCl, pH 7.5) containing 10 mM CaCl2 and 0.05% ZnCl2 at 37° C. and stained with Coomassie brilliant blue (0.5%). […] Molecular weight markers (Fermentas, Lithuania) were run with each gel. Band intensity was calculated using ImageJ 1.42 (NIH, USA).

pAkt (S473) = experiment: phospho-Akt (S473) in differentiated U937 cells stimulated with cigarette smoke extract (SDS-PAGE); type: cell-based; conditions: Homo sapiens, U-937; compound alone; differentiated U937, CSE; read-out: IC50 of inhibition of Akt phosphorylation
Procedure: U-937 monocytes were differentiated into macrophages by incubation with 50 ng/ml PMA for 48 h. Cells were trypsinized and plated at a density of 100,000 per well and stimulated with CSE for 2 h in starvation media. Lysates were made using RIPA buffer and run by SDS-PAGE, transferred to PVDF membrane and probed with phospho-Akt (S473) antibody (Cell signaling, USA) followed by anti-rabbit IgG (Cell signaling, USA). Band intensity was calculated using ImageJ 1.42 (NIH, USA).

elastase = experiment: fMLP induced elastase release from human neutrophils; type: cell-based; conditions: compound alone at 300 nM
Procedure: Blood was procured from a local blood bank. Neutrophils were obtained using the dextran sedimentation method. Cells were plated at 100,000 cells per well in a 96-well plate, treated with fMLP (1 μM) and N-Succinyl-Ala-Ala-Ala-p-nitroanalide (1 μM) (Sigma) and incubated for 2 h. Intensity of digested substrate after incubation was determined by measuring the absorbance at 405 nm on a Fluostar Omega (BMG Labtech, NC, USA).

[1] = test system: macrophage and neutrophil infiltration; experiment: Acute cigarette smoke induced cell infiltration in male Balb/c mice; type: in vivo; conditions: acute CS, mouse; for ED50: oral
Procedure: Animals were acclimatized for seven days prior to the start of the experiment. Animals were randomly distributed to various groups based on their body weights. On day 1, mice were administered by test compound or vehicle by the oral route and after 30 mins test compound administration animals were placed in a whole body exposure box. The mice were exposed to the mainstream smoke of 6 cigarettes from day 1 to day 4. Exposure to the smoke of each cigarette lasted for 10 min (cigarettes were completely burned in the first two minutes and followed by an air flow with animal ventilator) followed by exposure for the next 20 min with fresh room air. After every second cigarette an additional break of 20 min with exposure to fresh room air was conducted. Control animals were exposed to the room air chamber. From day 1 to day 4 animals were administered test compound by the oral route. On day 5, 24 hours after the last cigarette smoke (CS) exposure. animals were exsanguinated under anaesthesia, and the trachea was cannulated and the lungs were lavaged with 0.5 ml aliquots of heparinised PBS (1 unit/ml) four times through a tracheal cannula (total volume 2 ml). Bronchioalveolar (BAL) collected was stored at 2-8° C. until assayed for total cell and differential leukocyte count. BAL fluid was centrifuged (500×g for 10 min) and the resulting cell pellet was resuspended in 0.5 ml of heparinised saline. The total number of white blood cells was determined in BAL fluid and blood using a blood cell counter and adjusted to 1×10^6 cell/ml. Differential cell count was calculated manually. Forty microliters of the cell suspension was centrifuged using cytospin 3 to prepare a cell smear. The cell smear was stained with a blood staining solution for differentiation and microscopically observed by identifying each cell according to its morphological characteristics. The number of each cell type among 300 white blood cells in the cell smear were determined and expressed as a percentage, and the number of neutrophils and macrophages in each BAL fluid were calculated.
The procedure for acute cigarette smoke induced cell infiltration in male Balb/c mice described in Example 1 was performed with Compound A1 and roflumilast

TNFα [2] = experiment: LPS induced TNFα in PBMC; type: cell-based; conditions: 1000 nM alone, LPS 1 μg/ml, 24 h
Procedure: PBMC (peripheral blood mononuclear cells) from whole blood were isolated by density gradient using Histopaque and incubated with the desired concentration of inhibitor for 15 minutes. LPS (1 μg/ml) was added and then incubated for 24 hours. The supernatant was collected and TNFα estimated using an eBioscience TNFα ELISA kit.
PBMC from whole blood were isolated by density gradient using Histopaque and incubated with the desired concentration of inhibitor for 15 minutes. LPS (1 μg/m1) was added and then incubated for 24 hours. The supernatant was collected and TNFα estimated using an eBioscience TNFα ELISA kit.

[3] = test system: macrophage and neutrophil infiltration; experiment: Chronic cigarette smoke induced cell infiltration in male Balb/c mice; type: in vivo; conditions: alone at 1 mg/kg oral; chronic CS, mouse
Procedure: Animals were acclimatized for seven days prior to the start of the experiment. Animals were randomly distributed to various groups based on their body weights. Mice were exposed to the mainstream smoke of 4 cigarettes from day 1 to day 11. Exposure to the smoke of each cigarette lasted for […] (each cigarette was completely burned in the first two minutes, followed by an air flow with animal ventilator) and were exposed for the next 20 min with fresh room air. After every second cigarette an additional break of 20 min with exposure to fresh room air was conducted. Control animals were exposed to the room air chamber. Test compound was administered by the oral route from day 6 to day 11 before 30 mins whole body smoke exposure. On day 12, 24 hours after the last cigarette smoke (CS) exposure animals were exsanguinated under anaesthesia, and the trachea was cannulated and the lungs were lavaged with 0.5 ml aliquots of heparinised PBS (1 unit/nil) four times through tracheal cannula (total volume 2 ml). Bronchioalveolar (BAL) collected was stored at 2-8° C. until assayed for total cell and differential leukocyte count. BAL fluid was centrifuged (500×g for 10 min) and the resulting cell pellet was resuspended in 0.5 ml of heparinised saline. The total number of white blood cells was determined in BAL fluid and blood using a blood cell counter and adjusted to 1×10^6 cell/ml. Differential cell count was calculated manually Forty microliters of the cell suspension was centrifuged using cytospin 3 to prepare a cell smear. The cell smear was stained with a blood staining solution for differentiation and microscopically observed by identifying each cell according to its morphological characteristics. The number of each cell type among 300 white blood cells in the cell smear was determined and expressed as a percentage, and the number of neutrophils and macrophages in each BAL fluid were calculated.

neutrophil infiltration = experiment: Lipopolysaccharide induced pulmonary neutrophilia in female Wistar rats; type: in vivo
Procedure: After the quarantine period, fasted animals were randomized and divided into groups depending on their body weights. Test compound was prepared as a suspension in a vehicle consisting of 0.5% methylcellulose in which Tween 80 was used as a suspending agent. Compounds or vehicle were administered by oral gavage in a volume of 10 mL/kg. Animals were anaesthetized with ketamine and LPS solution was administered intratracheally 30 minutes after compound administration at a dose of 1 mg/kg. Six hours after LPS instillation, animals were exsanguinated under anaesthesia, and the trachea was cannulated, and lungs were lavaged with 5-ml aliquots of heparinised PBS (1 unit/ml) four times through the tracheal cannula (total volume 20 ml). Bronchioalveolar (BAL) fluid was stored at 2-8° C. until assayed for total cell and differential leukocyte count. BAL fluid was centrifuged (500×g for 10 min) and the resulting cell pellet was resuspended in 0.5 ml of heparinised saline. The total numbers of white blood cells were determined in BAL fluid or blood using a cell counter and were adjusted to 1×10^6 cell/ml. Differential cell count was calculated manually. One hundred microliters of the cell suspension was centrifuged using cytospin 3 to prepare a cell smear. The cell smear was stained with a blood staining solution for differentiation and slides were microscopically observed to identify eosinophils according to their morphological characteristics. The number of each cell type among 300 white blood cells in the cell smear was determined and expressed as a percentage of total cells. The number of eosinophil in BALF was calculated.
The procedure for LPS induced pulmonary neutrophilia in female Wistar rats as described in Example 1 was performed with compound A1 and roflumilast.

TNFα [4] = experiment: LPS induced TNFα in MH-S (mouse alveolar macrophage) cells; type: cell-based; conditions: 130 nM alone
Procedure: MH-S represents a mouse alveolar macrophage cell line that secretes copious amounts of TNFα upon induction by LPS. Cells were plated at 150,000 cells per well. 10 nM of Compound A1 (final concentration) was added 15 minutes prior to the addition of roflumilast. LPS (1 μg/ml) was added and then incubated for 4 hours. The supernatant was collected after 20 hours and TNFα was estimated using an ELISA kit.

[5] = 3 mg/kg oral, dose-response study
[6] = combination study, alone at 3 mg/kg

`Cc1ccccc1-n1c(Cn2cnc3c(N)ncnc32)nc2cccc(C)c2c1=O` [Compound B, 2-((6-amino-9H-purin-9-yl)methyl)-5-methyl-3-o-tolylquinazolin-4(3H)-one] was tested, and the “effect on MMP-9 release” value (MMP-9) was “no effect”, the IC50 (pAkt (S473)) was 0.78 µM and the “reduction of elastase release” value (elastase) was 10%.
For `C[C@H](Nc1ncnc2[nH]cnc12)c1oc2ccc(F)cc2c(=O)c1-c1cccc(F)c1` [Compound C, (S)-2-(1-(9H-purin-6-ylamino)ethyl)-6-fluoro-3-(3-fluorophenyl)-4H-chromen-4-one], the “percent inhibition of macrophage infiltration” value ([1]; 1 mg/kg oral) was 34.84%, the “percent inhibition of neutrophil infiltration” value ([1]; 1 mg/kg oral) was 29.06% and the “percent inhibition of macrophage infiltration” value [1, 5] was 42.09%. For the same compound, the “percent inhibition of neutrophil infiltration” value [1, 5] was 62.38%, the “percent inhibition of macrophage infiltration” value ([1]; 10 mg/kg oral) was 61.77% and the “percent inhibition of neutrophil infiltration” value ([1]; 10 mg/kg oral) was 74.25%. For the same compound, the ED50 ([1]; Macrophage, read-out: 50% inhibition (ED50) dose, macrophage infiltration) was 4.4 mg/kg, the ED50 ([1]; Neutrophil, read-out: dose of 50% inhibition (ED50) of neutrophil infiltration) was 2.1 mg/kg and the “inhibition of macrophage infiltration” value [1, 6] was 30.01%. The “inhibition of neutrophil infiltration” value [1, 6] was 41.47%, the “decrease of TNFα secretion” value (TNFα [2]) was 20% and the “inhibition of macrophage infiltration” value [3] was −13.30%. The “inhibition of neutrophil infiltration” value [3] was 4.08%, the “percent inhibition of neutrophil infiltration” value (neutrophil infiltration; 0.1 mg/kg oral, rat BAL fluid 6 h after LPS) was 14.15% and the “percent inhibition of neutrophil infiltration” value (neutrophil infiltration; 1 mg/kg oral, dose-response study, rat) was 57.76%. For the same compound, the “percent inhibition of neutrophil infiltration” value (neutrophil infiltration; 3 mg/kg oral, rat) was 56.93%, the “percent inhibition of neutrophil infiltration” value (neutrophil infiltration; 10 mg/kg oral, rat) was 81.55% and the ED50 (neutrophil infiltration; Neutrophil, oral, rat LPS pulmonary neutrophilia, read-out: 50% inhibition (ED50) dose, neutrophil infiltration) was 1 mg/kg. For the same compound, the “inhibition of neutrophil infiltration” value (neutrophil infiltration; combination study, alone at 1 mg/kg, rat) was 36.56%.
For `CCOc1cc([C@@H](CS(C)(=O)=O)N2C(=O)c3cccc(NC(C)=O)c3C2=O)ccc1OC` [aprelimilast, reference compound], the “decrease in TNFα secretion” value (TNFα [4]) was ~10%.
